Source: patent US20190022220A1, “LIGHT-ACTIVATED ANCHORING OF THERAPEUTIC FACTORS TO TISSUES” (The Board of Trustees of the Leland Stanford Junior …, priority 2016, published 2019)
Entries after “also recorded” stand apart in the source; their conditions may differ.

Experiments:
NGF receptor = assay: Ellipsometry of soluble NGF receptor binding to NGF-coupled collagen surfaces; conditions: NGF photochemically coupled to collagen compared to physisorbed NGF
Text: V-CXL binds growth factors directly to collagen. V-CXL was used to bind EGF and NGF growth factors directly to collagen. Fluorometry (FIG. 3), surface plasmon resonance (FIG. 4), ellipsometry (FIG. 5), and ELISA (FIG. 6) were used to monitor and compare the chemical coupling versus physical adsorption of NGF and EGF to collagen surfaces. In these experiments, collagen was first chemically immobilized to either gold, glass, or polystyrene surfaces (depending on the method being used), followed by V-CXL-mediated coupling of either EGF or NGF (or their fluorescein-isothiocyanate (FITC)-labeled conjugates) to the collagen coating alone or physical adsorption of growth factor to collagen from aqueous solution.
Exposure of NGF to blue light in the presence of riboflavin led to a step-increase in the layer thickness of the collagen-coated gold wafer.

[1] = system: human mesenchymal stem cells (hMSCs); assay: Live-dead assay of hMSCs encapsulated in collagen gels formed with riboflavin and blue light; assay type: cell-based; conditions: 72 hours; riboflavin 0.25 mM or less; 20 sec blue light at 100 mW/cm^2; cells in collagen gel
Text: A major clinical challenge is the delivery of cells, particularly stem cells, to an diseased or damaged area of the body. Currently, the stem cells are typically injected in suspension to an area without a specific or effective means to have them target and adhere to a particular location. Providing a immobilizing matrix and microenvironment in which to settle and grow while remaining immobilized to that are would be an advancement in the art. Cells can be encapsulated within a biomolecular gel according to the present invention. […] Using this method, hMSCs and other cell types can be encapsulated and positioned to a specific location in the body. For instance, a collagen gel encapsulating hMSCs can be formed and adhered in situ using blue light and riboflavin on the surface of a corneal wound, creating a “living reservoir” of therapeutic factors that are secreted by the immobilized hMSCs. The formed gel adheres to the target tissue due to crosslinks formed between the exogenously applied collagen and the collagen on the wound bed or target tissue which is shown by example in FIG. 9D.

[2] = system: primary rabbit corneal epithelial cells (CECs); assay: Proliferation of corneal epithelial cells on EGF-bound collagen surfaces; assay type: cell-based; conditions: over 5 days; EGF bound to collagen by V-CXL vs collagen without covalently linked EGF; both concentrations tested
Description: Enhanced cell proliferation on growth factor fortified collagen gels. Late-passage primary rabbit corneal epithelial cells (CECs) of the same cell density were grown on surfaces with EGF bound to collagen using V-CXL as well as standard collagen-coated tissue-culture polystyrene without covalently linked EGF.

[3] = system: 2 mm corneal debridement wound; assay: Rodent corneal debridement wound healing and ocular tolerance study; assay type: in vivo
Description: FIGS. 13A-13D show results of EGF surface-coupling by V-CXL in a rodent corneal debridement animal model. A 2 mm corneal debridement was performed in three groups of two rodent eyes each (average corneal diameter=3 mm). Shown here are photographs of fluorescein-stained rodent eyes at 24 hours: EGF encapsulated within a collagen gel using riboflavin and blue light exposure for 5 seconds (FIG. 13A), EGF coupling directly to corneal stroma using riboflavin and blue light exposure for 5 seconds (FIG. 13B), topical EGF only (FIG. 13C), and no treatment (FIG. 13D). Slit lamp photos of the wounded and treated eyes are shown on the left, and fluorescein staining of the same eyes are shown on the right.
Mouse corneas were subject to 2 mm diameter circular corneal debridement and then treated with (1) a collagen gel solution containing 0.01 mg/ml of EGF, and 0.1 mg/ml riboflavin and exposed to blue light (˜458 nm) for 5 seconds, (2) an aqueous EGF solution containing 0.01 mg/ml EGF and 0.1 mg/ml riboflavin and exposed to blue light for 5 seconds, (3) topical application of an aqueous solution of EGF alone at a concentration of 0.01 mg/mL, or (4) no treatment. The rodents were then examined at 24 hours and the wound areas examined by fluorescein staining.
In vivo ocular tolerance and wound healing animal study: In an animal study in rodents, V-CXL was used to bind EGF to wounded corneas. Briefly, a 2 mm diameter debridement was performed, and the wound bed was treated topically with 0.025 mM of riboflavin mixed with 0.01 mg/mL of EGF delivered topically to the wound bed and allowed incubate for 10 minutes followed by 5 seconds of exposure to blue light (˜458 nm) at 60 mW/cm^2. The eye was then rinsed with BSS. Controls used were topical EGF alone and no treatment.

[4] = EGF release from V-CXL collagen gels (ELISA); assay type: physicochemical; conditions: 37° C., 2 to 120 hours
Description: FIG. 9C summarizes the storage and loss modulus of collagen gels crosslinked using riboflavin and blue light exposure of different time intervals.
Growth factor release. To understand the ability of growth factors to be liberated from crosslinked collagen, human recombinant EGF (Peprotech) was incorporated within collagen gels during gelation. A neutralized 3% collagen solution with 0.25 mM riboflavin was exposed to blue light (˜458 nm) at 60 mW/cm^2 for 20 seconds. The formed gel was then cut into cylindrical discs and placed in a PBS solution with or without 0.1% versus 0.2% collagenase at 37° C. on a shaker. The solution was then sampled at intervals starting at 2 hours to 120 hours. An ELISA kit was then used to evaluate the concentration of released EGF in the solution.

nerve growth factor [NGF]
NGF receptor binding (change in relative layer thickness) (NGF receptor): higher amount of NGF receptor binding; also recorded: greater NGF binding

Cc1cc2nc3c(=O)[nH]c(=O)nc-3n(C[C@H](O)[C@H](O)[C@H](O)CO)c2cc1C [riboflavin]
% living hMSCs (viability) [1]: greater than 90%

epidermal growth factor [EGF]
proliferation of senescent primary CECs [2]: greater proliferation | wound area by fluorescein staining vs topical EGF alone or no treatment ([3]; 24 hours, 0.01 mg/ml EGF, 0.1 mg/ml riboflavin, blue light (~458 nm) 5 seconds): smaller; also recorded: greater wound area reduction | reduction in wound area by fluorescein staining compared with controls ([3]; 24 hours, EGF-coupled corneas (0.025 mM riboflavin, 0.01 mg/mL EGF, 5 s blue light) vs topical EGF alone and no treatment, n=2): greater reduction in wound area | wound area as % of the wound area in topical EGF-treated eyes ([3]; 24 hours, V-CXL: 0.025 mM riboflavin + 0.01 mg/mL EGF, 5 seconds blue light (~458 nm) at 60 mW/cm^2, n=2, ImageJ analysis): approximately 50% | wound area as % of the wound area of untreated eyes ([3]; 24 hours, V-CXL: 0.025 mM riboflavin + 0.01 mg/mL EGF, 5 seconds blue light at 60 mW/cm^2, n=2, ImageJ analysis): approximately 35% | signs of ocular intolerance (conjunctival injection, swelling, discharge, corneal toxicity) ([3]; eyes treated with EGF and riboflavin in the V-CXL reaction): No signs of ocular intolerance | EGF release from collagen gel ([4]; 0.1% versus 0.2% collagenase in PBS): increases the release in a dose-dependent manner; also recorded: accelerated in a dose-dependent manner | EGF release from collagen gel ([4]; PBS alone, 3% collagen, 0.25 mM riboflavin, blue light 60 mW/cm^2 20 seconds): relatively slow release and slow
